Activity calls are given as the source filed them. How the calls were made is not given here.

The experiment is described as follows: non-covalent RecA intein splicing inhibitors, dose response, biochemical, cell-free, fluorescence, secondary screen (AID 449750).
In general, AC50 refers to the concentration at which the activity in the assay is half-maximal. As for `CC(=O)C12CC(C)=C(C)CC1CC1C3CCC4=CC(=O)CCC4(C)C3CCC12C` (centres undefined), the AC50 was 4.58 µM.

Consider `CSc1nc(-c2ccc(Cl)cc2)nn1C(=O)c1ccco1`, for which the AC50 is > 38 µM (inactive).

Regarding `CC1=NNC(=O)/C1=C\c1cn(-c2ccccc2)nc1-c1cccs1`, the AC50 was 9.64 µM.

Regarding `O=C(CSc1c2c(nc3cc(Cl)ccc13)CCCC2)NCc1ccco1`, the AC50 is 26.4 µM.

As for `Cc1ccc(NC2=CC(=O)C(=O)c3ccccc32)cc1`, the AC50 is 6.16 µM.

Regarding `O=C1C=C(N(CCO)Cc2ccccc2)c2ccccc2C1=O`, the half-maximal activity concentration (AC50) was 4.49 µM.

As for `CC1(N2CCOCC2)CC2(O)C(=[N+]1[O-])CCc1nonc12` (centres undefined), the half-maximal activity concentration (AC50) was 36.5 µM.

Turning to `Cc1[nH][nH]c(=O)c1C(c1ccc(-c2ccc(Cl)c(Cl)c2)o1)c1c(C)[nH][nH]c1=O`, the half-maximal activity concentration (AC50) was 3.11 µM.

As for `Cc1ccc(NC2=C(N3CCCCC3)C(=O)c3ccccc3C2=O)cc1`, the concentration at half-maximal activity (AC50) is 8.12 µM.

As to `COc1c(O)ccc2c1CN1CCc3cc4c(cc3C1C2)OCO4` (centres undefined), the AC50 is > 38 µM (inactive).

As for `COc1cc(/C=C2\C(=O)N(c3ccc(S(N)(=O)=O)cc3)N=C2C)ccc1OC(=O)c1ccco1`, the AC50 is 21 µM.

For the compound `CC(=O)Nc1ccc(NC(=O)CSc2ncc(C(=O)Nc3ccc(F)cc3)c(=O)n2C)cc1`, the AC50 was > 38 µM (inactive).

For the compound `Cc1c([N+](=O)[O-])cnc(Sc2ccccc2)c1[N+](=O)[O-]`, the half-maximal activity concentration (AC50) is 1.23 µM.

For `C/C(=N/NC(=O)Cc1cc(=O)[nH][nH]1)c1ccc([N+](=O)[O-])cc1`, the concentration at half-maximal activity (AC50) is 21.5 µM.

`Cc1[nH][nH]c(=O)c1C(c1ccc(-c2cccc(Cl)c2)o1)c1c(C)[nH][nH]c1=O`: the AC50 was > 38 µM (inactive).

For the compound `CCOC(=O)c1c(NC(=O)/C=C/C(=O)O)sc(C)c1-c1ccc(F)cc1`, the concentration at half-maximal activity (AC50) was 18 µM.

Take `Cc1[nH][nH]c(=O)c1C(c1ccc2c(c1)OCO2)c1c(C)[nH][nH]c1=O`: the AC50 is 19 µM.

Take `Cc1[nH]n(-c2ccccc2)c(=O)c1C(c1ccc([N+](=O)[O-])cc1)c1c(C)[nH]n(-c2ccccc2)c1=O`: the concentration at half-maximal activity (AC50) is 3.88 µM.

On to `O=C(NN=c1c(=O)c2ccccc2c1=O)c1ccccc1`, for which the AC50 was 8.96 µM.

Take `COc1cccc(N2CC(C(=O)Nc3nnc(SCC(=O)c4ccccc4)s3)CC2=O)c1` (centres undefined): the AC50 is > 38 µM (inactive).

For the compound `CC(Oc1ccc(F)cc1)C(=O)Oc1ccc(N(C)S(=O)(=O)c2ccccc2)cc1` (centres undefined), the AC50 was > 38 µM (inactive).

As for `CCOC(=O)Cn1cc(/C=N/NC(=O)CC#N)c2ccccc21`, the AC50 was > 38 µM (inactive).

Regarding `CC1(C)CC2(C)OC(=N)C1(C#N)C2(C#N)C#N` (centres undefined), the AC50 is > 38 µM (inactive).

For `CN(CCO)c1cc(Sc2nc3ccccc3s2)c2nonc2c1[N+](=O)[O-]`, the AC50 was 7.53 µM.

Regarding `Cc1[nH]nc2c1C1(CCN(C(=O)OCc3ccccc3)CC1)C(C#N)=C(N)O2`, the AC50 is > 38 µM (inactive).

Take `Cc1cccc(Nc2nc(NCc3ccco3)c3ccccc3n2)c1`: the AC50 was 8.01 µM.

Consider `COc1ccc(-c2cc(=O)n(CCC#N)[nH]2)cc1`, for which the AC50 is 3.3 µM.

As to `Cc1ccc(SCc2[nH]nc3c2C(c2ccco2)C(C#N)=C(N)O3)cc1` (centres undefined), the concentration at half-maximal activity (AC50) is 14.8 µM.

Take `O=C(CCl)N(Cc1ccccc1)c1ccccc1`: the AC50 was 4.16 µM.

For the compound `CS(=O)(=O)c1ncc(Cl)c(C(=O)Nc2ccc(N3CCOCC3)cc2)n1`, the AC50 was > 38 µM (inactive).

As for `Cc1nn(-c2ccccc2)c2c1C(c1ccncc1)C(C#N)=C(N)O2` (centres undefined), the AC50 is > 38 µM (inactive).

As to `CCCCCCOC(=O)c1ccc(OC(=O)c2cccnc2)cc1`, the AC50 is > 38 µM (inactive).

Regarding `CCCn1c(CC)nc([N+](=O)[O-])c1S(=O)(=O)c1ccccc1`, the AC50 was > 38 µM (inactive).

For `CC(=O)Nc1ccc(NC(=O)c2nc(S(=O)(=O)Cc3ccccc3)ncc2Cl)cc1`, the AC50 was > 38 µM (inactive).

Regarding `CCC(C)N(CC(=O)Nc1cccc(C)c1C)C(=O)CCl` (centres undefined), the AC50 was 30.2 µM.

For the compound `CS/C(=C/[N+](=O)[O-])Nc1cccc2c1C(C)CC2(C)C` (centres undefined), the AC50 is > 38 µM (inactive).

Regarding `Cc1c(C#N)c(NC(=O)CCl)n(Cc2ccc(F)cc2)c1C`, the AC50 is 3.69 µM.

For the compound `Cc1nc2ccccc2c2c1C(=O)N(C(C)C)C2=O`, the AC50 was > 38 µM (inactive).

In the case of `O=c1cc(-c2ccc(Cl)c(Cl)c2)[nH][nH]1`, the AC50 was 8.07 µM.

For the compound `Cc1c(Cl)cccc1NC(=S)/C(=C(\[O-])c1ccc(Cl)s1)[n+]1ccccc1`, the AC50 is > 38 µM (inactive).

For the compound `CC(C)(C)OC(=O)N/N=C\c1ccc(OC(=O)c2ccco2)cc1`, the AC50 is > 38 µM (inactive).

For the compound `CCOc1cc(C(c2c(C)[nH][nH]c2=O)c2c(C)[nH][nH]c2=O)ccc1OCc1ccc([N+](=O)[O-])cc1`, the AC50 was 6.09 µM.

As to `O=[N+]([O-])c1cc(O)c2ncccc2c1`, the half-maximal activity concentration (AC50) is 8.43 µM.

Turning to `O=Cc1sc(=O)n(Cc2cccc(C(=O)O)c2)c1Cl`, the AC50 is > 12 µM (inactive).

For `COc1cc(/C=N/NC(=S)Nc2cccc(Cl)c2C)ccc1OCC(=O)N1CC(C)OC(C)C1` (centres undefined), the AC50 was > 38 µM (inactive).

Take `O=C1C(Cl)=C(N2CCCCC2)C(=O)N1c1ccccc1Cl`: the AC50 was > 38 µM (inactive).

Regarding `COc1ccccc1/C=C/C1(C(=O)NC2CCCC2)CC(=O)N1c1ccc(F)cc1` (centres undefined), the AC50 is 9.42 µM.

For the compound `COc1cc(C(c2c(C)[nH][nH]c2=O)c2c(C)[nH][nH]c2=O)ccc1OCc1ccc([N+](=O)[O-])cc1`, the AC50 is 6.41 µM.

As to `Cc1cc(-c2[nH]nc3c2C(c2ccc(Cl)cc2)C(C#N)=C(N)O3)c(C)s1` (centres undefined), the AC50 is 15.2 µM.

In the case of `Cc1[nH][nH]c(=O)c1C(c1ccc(Cl)cc1)c1c(C)[nH][nH]c1=O`, the AC50 is 18.1 µM.

For the compound `COc1cc(-n2nc(C)c3c2OC(N)=C(C#N)C3c2ccccc2)c(Cl)c(Br)c1O` (centres undefined), the AC50 was 16 µM.

Take `COc1ccc(N2CCN(C(=O)c3ccc(Oc4ccc(C(F)(F)F)cn4)cc3)CC2)cc1`: the AC50 is > 38 µM (inactive).

As to `Brc1ccc(Cn2c(-c3ccc(Br)o3)nc3ccccc32)o1`, the AC50 was 23.2 µM.

For `CC/C(=C/c1sc2ccc(C)cc2[n+]1CCO)SC`, the AC50 was > 38 µM (inactive).

As for `COc1ccc(-c2[nH]nc3c2C(c2ccccc2OC(=O)N2CCOCC2)C(C#N)=C(N)O3)cc1` (centres undefined), the AC50 is 38.2 µM.

In the case of `O=C(c1c[nH]c(C(=O)C(Cl)(Cl)Cl)c1)c1ccccc1Cl`, the half-maximal activity concentration (AC50) is 24.9 µM.

Take `O=C(NC1=C(Nc2ccc(Cl)cc2)C(=O)c2ccccc2C1=O)c1ccccc1`: the concentration at half-maximal activity (AC50) was 34.4 µM.

With `CC1=NN(Cc2ccccc2)C(=O)C1C(c1ccncc1)C(C#N)C#N` (centres undefined), the AC50 was > 38 µM (inactive).

Regarding `COc1ccccc1-c1cc(C(F)(F)F)nc(S(=O)(=O)CCCC(=O)N2CCCCC2C)n1` (centres undefined), the AC50 was > 38 µM (inactive).

As to `Cc1nn(Cc2ccccc2)c2c1C(c1ccco1)C(C#N)=C(N)O2` (centres undefined), the AC50 was > 38 µM (inactive).

Turning to `COc1ccc(O)c(C(c2c(C)[nH][nH]c2=O)c2c(C)[nH][nH]c2=O)c1`, the concentration at half-maximal activity (AC50) is 8.26 µM.

`COc1cc(C(c2c(C)[nH][nH]c2=O)c2c(C)[nH][nH]c2=O)cc([N+](=O)[O-])c1O`: the half-maximal activity concentration (AC50) is 10.7 µM.

Turning to `CCn1c(COc2cccc3ccccc23)nnc1SCC(N)=O`, the AC50 is > 38 µM (inactive).

On to `CC(C)Cn1c(C(C)C)nc([N+](=O)[O-])c1S(=O)(=O)c1ccc(F)cc1`, for which the AC50 is > 38 µM (inactive).

Regarding `Nc1nc(-c2ccco2)nn1C(=O)c1ccc(Cl)cc1`, the AC50 was > 38 µM (inactive).

Regarding `C/C(=C\c1ccco1)C1C(C#N)=C(N)Oc2n[nH]c(-c3ccccc3)c21` (centres undefined), the concentration at half-maximal activity (AC50) was 20.8 µM.

As for `CC(=O)c1ccc(-c2cccc(-c3nc4ccccn4c3NC3CCCCC3)c2)cc1`, the AC50 is 6.79 µM.

Regarding `N#CC1=C(N)Oc2n[nH]c(-c3cccs3)c2C1c1ccoc1` (centres undefined), the AC50 is > 38 µM (inactive).

On to `CCc1nc(N2CCN(C(=O)CCl)CC2)c2c3c(sc2n1)CC(C)CC3` (centres undefined), for which the half-maximal activity concentration (AC50) is 2 µM.

As to `COc1cc(/C=C(\C#N)c2nc3ccccc3o2)ccc1O`, the AC50 is > 38 µM (inactive).

As to `Cc1ccc(S(=O)(=O)N(C(=O)c2ccncc2)c2ccc(OC(=O)c3ccncc3)c3ccccc23)cc1`, the AC50 is 4.13 µM.

As for `COc1ccc(-c2cc(=O)[nH][nH]2)cc1OC`, the concentration at half-maximal activity (AC50) was 4.35 µM.

With `CCOC(=O)c1cnc(-n2[nH]c(C)c(Cc3ccccc3)c2=O)[nH]c1=O`, the AC50 was > 38 µM (inactive).

In the case of `CCC1C(=O)N(c2nc(C)cc(C)n2)N=C1C` (centres undefined), the AC50 is > 38 µM (inactive).

As for `COc1ccc(CN(C(=O)CSc2nnc(-c3ccccc3C)o2)c2ccc(F)cc2)cc1`, the AC50 was 21.9 µM.

`COC(=O)c1c(C)oc2ccc(N(C(=O)c3ccncc3)S(=O)(=O)c3ccc4ccccc4c3)cc12`: the AC50 is > 38 µM (inactive).

With `COc1ccc(CC(=O)N/N=C(/C)CC(=O)N(C)c2ccccc2)cc1`, the AC50 was > 38 µM (inactive).

Consider `N#Cc1c(N2CCCC2)nc(N)c2c(N)nc(N3CCCC3)cc12`, for which the concentration at half-maximal activity (AC50) is 0.774 µM.

For the compound `Cc1cccc(OCC(=O)Oc2ccc(Cl)cc2)c1`, the AC50 is > 12 µM (inactive).

As to `CC1CCCN(C2=C(Cl)C(=O)N(c3cccc(Cl)c3)C2=O)C1` (centres undefined), the AC50 is > 38 µM (inactive).

In the case of `Cn1cnc([N+](=O)[O-])c1Sc1nnc(-c2cccnc2)n1C`, the AC50 is > 38 µM (inactive).

Take `O=C(CCl)Nc1cccc(CP(=O)(c2ccccc2)c2ccccc2)c1`: the half-maximal activity concentration (AC50) was 17.8 µM.

For the compound `Cc1ccc(CNC(=O)c2ccc(N(C)S(=O)(=O)c3ccccc3)cc2)cc1`, the AC50 was > 38 µM (inactive).

For `Cc1[nH]n(-c2ccccc2)c(=O)c1/C=N/NC(=O)c1ccc(O)cc1O`, the AC50 was > 38 µM (inactive).

Take `O=C(O)CN1C(=O)/C(=C\c2cccc(OCc3ccc(Cl)cc3Cl)c2)SC1=S`: the AC50 was 6.45 µM.

On to `CC(C)(C)c1ccc(S(=O)(=O)/N=C2\C=C(NS(=O)(=O)c3ccccc3)C(=O)c3ccccc32)cc1`, for which the AC50 was 5.5 µM.

Turning to `CC1(C)CC(=O)C(C2(O)C(=O)NC(=O)NC2=O)=C(O)C1`, the AC50 is 1.79 µM.

For the compound `Cc1[nH]n(C(C)(C)C)c(=O)c1Sc1ccccc1`, the AC50 was > 38 µM (inactive).

Consider `CCN(CC)S(=O)(=O)c1ccc(N2CCN(S(=O)(=O)c3ccccc3C#N)CC2)nc1`, for which the AC50 was > 38 µM (inactive).

For the origin of these results see PubChem BioAssay AID449750 (Broad Institute, 2010).
